# Results as given in patent US5652222A, “Selective inhibition of leukemic cell proliferation by bcr-abl antisense oligonucleotides” (Temple University-of The Commonwealth System of Higher …, priority 1993, dated 1997).
# Experiments:
# BV173 cells = assay: Survival of leukemic SCID mice; assay type: in vivo, SCID mice (human leukemic cells); conditions: treatment starting from days +7 or +21 (FIG. 12)
# Text: To determine the lethal dose of BV173 cells in the SCID mice, we injected from 10^3 to 10^7 cells into the tail vein and monitored survival at various times postinjection. Mice injected with 10^7, 10^6, 10^5, or 10^4 BV173 cells died 8-10, 9-12, 13-15, or 14-22 weeks later, respectively, due to leukemia cell growth as confirmed on necroscopy. Spleen weight was about 40 times higher than that in noninjected SCID mice while liver and kidneys had numerous metastases and were enlarged 10-fold as compared to noninjected mice. Mice injected with 10^3 BV173 cells were still alive 35 weeks post implantation, and leukemia was never detected. From this study, 10^6 cells was taken as a lethal dose.
# To determine whether synthetic phosphorothioate oligodeoxynucleotides targeted against the bcr-abl junction of […] cells would modify the disease process in SCID mice. SCID mice were injected with 10^6 BV173 cells. The mice then received 1 mg of sense (ATCAATAAGG AAGCCCTTCAGCG, SEQ ID NO:34) or antisense ([…] ATTGAT, SEQ ID NO:29) b2/a2 bcr-abl phosphorothioate oligodeoxynucleotides (pyrogen leven <1 Eu/mg; 0.2 ml in Iscove modified Dulbecco medium in 5-10 seconds) intravenously for each of 9 consecutive days, beginning either 7 or 21 days after introducing 10^6 BV173 cells. Control mice received the diluent (iscove's modified Dulbecco medium) only. These time points approximate distinct disease stages in humans.
# [1] = system: 1:1 mix of normal MNC and CML blast crisis cells; assay: Morphology (Giemsa staining) of cells from residual colonies; assay type: cell-based, human
# Text: Normal bone marrow mononuclear cells (MNC) were obtained by aspiration from consenting volunteers and enriched for hematopoietic progenitors as previously reported by numerous investigators (Zamecnick et al., Proc. Natl. Acad. Sci. U.S.A. 83, 4143-4147 (1986); Caracciolo et al., J. Clin. Invest. 85, 55-61 (1990)). In brief, marrow cells were subjected to Ficoll-Hypaque density gradient sedimentation and then depleted of adherent monocyte-macrophage and T-lymphocytes by adherence to plastic Petri dishes and rosetting with neuraminidase-treated sheep red blood cells, respectively. Philadelphia chromosome-positive blast cells were isolated by Ficoll-Hypaque density gradient sedimentation from a CML patient in blast crisis (L-6 type junction). […] The residual non-blast cells had the morphological appearance of small lymphocytes. 25,000 MNC and 25,000 CML blast cells were combined and incubated with bcr-abl breakpoint-Specific antisense oligomer (SEQ ID NO:3) (40 μg/ml at h 0; 20 μg/ml 18 hours later) or with a 4 nucleotide mismatch bcr-abl antisense oligomer (SEQ ID NO:2) (40 μg/ml at 0 h; 20 μg/ml 18 hours later) or left untreated. […] At the end of the incubation period colonies were counted. […]
# [2] = system: β2-microglobulin transcript; assay: β2-microglobulin transcript in residual colonies (RT-PCR control); assay type: cell-based, human; conditions: antisense-treated colonies
# Protocol: To provide unambiguous evidence of the elimination of Philadelphia chromosome blast cells, residual cells from Example 3 were evaluated for the expression of bcr-abl transcripts, since the levels of this transcript should reflect the number of surviving leukemia cells. For this purpose, total RNA was isolated from a pool of colonies from Example 3, and the levels of bcr-abl transcripts were evaluated. Levels of β2 -microglobulin transcript were also determined as a control. The β2 -microglobulin gene is expressed independent of cell cycle.
# Accordingly, bcr-abl and β2 -microglobulin transcripts were reverse-transcribed and amplified in the presence of specific primers and Taq polymerase as described by Rappollee, Science 241, 708-712 (1988). The amplification products were separated on a 2% agarose gel and transferred to a nitrocellulose filter, which was hybridized with a synthetic 40-nucleotide c-abl fragment and a 40-nucleotide β2 -microglobulin fragment and labeled with [γ-^32 P]-ATP and polynucleotide kinase. The c-abl probe recognizes the amplified 257-nucleotide sequence of FIG. 1, which contains the L-6 type bcr-abl junction. The β2 -microglobulin probe recognizes the 195-nucleotide sequence contained within 5' and 3' β2 -microglobulin primers (Id.; Suggs et al., Proc. Natl. Acad. Sci. U.S.A. 78, 6613 (1981)).
Substance,mortality / survival outcome (BV173 cells),survival after i.v. injection of 10^6 BV173 cells (BV173 cells),morphology of cells isolated from residual colonies [1],expression of β2-microglobulin [2]
"SEQ ID NO:34: phosphorothioate sense sequence ATCAATAAGGAAGCCCTTCAGCG (23-mer b2a2 sense) (sense ATCAATAAGGAAGCCCTTCAGCG; all phosphorothioate, sugars by position and methylation of C not given here)",died with diffuse leukemia,10-13 weeks,,
SEQ ID NO:3: synthetic 18-mer GAAGGGCTTC TTCCTTAT specific for the 18-nucleotide target sequence of the L-6 bcr-abl junction (antisense GAAGGGCTTCTTCCTTAT; chemistry not given here),,,largely consisted of differentiating elements,clearly detectable
